Measured values from patent US20100016401A1, “3-AZA-BICYCLO[3.1.0]HEXANE DERIVATIVES” (Actelion Phamaceuticals Ltd., priority 2006, published 2010).

Tests used:
human orexin-1 receptor = biological target: T1, human orexin-1 receptor (Homo sapiens, UniProt O43613); assay: Intracellular calcium measurements (FLIPR), orexin receptor antagonistic activity, OX1; format: cell-based; details: CHO cells expressing human orexin-1 receptor, 10 nM orexin-A as agonist
T1 construct: expressed in transfected cells; host or cells: CHO (Chinese hamster ovary) cells, grown under G418 selection
T1 sequence (O43613 1-425): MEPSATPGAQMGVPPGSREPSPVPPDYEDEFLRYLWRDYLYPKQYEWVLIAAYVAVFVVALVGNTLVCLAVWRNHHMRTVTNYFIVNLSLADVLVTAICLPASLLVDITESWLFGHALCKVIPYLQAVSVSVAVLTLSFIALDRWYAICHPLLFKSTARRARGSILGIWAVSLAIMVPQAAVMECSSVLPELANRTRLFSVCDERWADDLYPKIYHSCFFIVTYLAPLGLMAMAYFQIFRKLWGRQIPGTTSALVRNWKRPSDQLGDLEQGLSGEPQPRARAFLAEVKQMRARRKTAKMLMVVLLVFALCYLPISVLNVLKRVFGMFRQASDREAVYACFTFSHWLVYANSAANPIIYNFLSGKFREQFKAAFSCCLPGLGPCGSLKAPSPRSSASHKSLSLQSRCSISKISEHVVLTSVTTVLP
Method: (§1) The orexin receptor antagonistic activity of the compounds of formula (I) is determined in accordance with the following experimental method.
(§2) Intracellular Calcium Measurements:
(§3) Chinese hamster ovary (CHO) cells expressing the human orexin-1 receptor and the human orexin-2 receptor, respectively, are grown in culture medium (Ham F-12 with L-Glutamine) containing 300 μg/ml G418, 100 U/ml penicillin, 100 μg/ml streptomycin and 10% inactivated fetal calf serum (FCS). The cells are seeded at 80,000 cells/well into 96-well black clear bottom sterile plates (Costar) which have been precoated with 1% gelatine in Hanks' Balanced Salt Solution (HBSS). All reagents are from Gibco BRL. The seeded plates are incubated overnight at 37° C. in 5% CO2.
(§4) Human orexin-A as an agonist is prepared as 1 mM stock solution in MeOH: water (1:1), diluted in HBSS containing 0.1% bovine serum albumin (BSA) and 2 mM HEPES for use in the assay at a final concentration of 10 nM.
(§5) Antagonists are prepared as 10 mM stock solution in DMSO, then diluted in 96-well plates, first in DMSO, then in HBSS containing 0.1% bovine serum albumin (BSA) and 2 mM HEPES.
(§6) On the day of the assay, 100 μl of loading medium (HBSS containing 1% FCS, 2 mM HEPES, 5 mM probenecid (Sigma) and 3 μM of the fluorescent calcium indicator fluo-3 AM (1 mM stock solution in DMSO with 10% pluronic acid) (Molecular Probes) is added to each well.
(§7) The 96-well plates are incubated for 60 min at 37° C. in 5% CO2. The loading solution is then aspirated and cells are washed 3 times with 200 μl HBSS containing 2.5 mM probenecid, 0.1% BSA, 2 mM HEPES. 100 μl of that same buffer is left in each well.
(§8) Within the Fluorescent Imaging Plate Reader (FLIPR, Molecular Devices), antagonists are added to the plate in a volume of 50 μl, incubated for 20 min and finally 100 μl of agonist is added. Fluorescence is measured for each well at 1 second intervals, and the height of each fluorescence peak is compared to the height of the fluorescence peak induced by 10 nM orexin-A with buffer in place of antagonist.

human orexin-2 receptor = biological target: T2, human orexin-2 receptor (Homo sapiens, UniProt O43614); assay: Intracellular calcium measurements (FLIPR), orexin receptor antagonistic activity, OX2; format: cell-based; details: CHO cells expressing human orexin-2 receptor, 10 nM orexin-A as agonist
T2 construct: expressed in transfected cells; host or cells: CHO (Chinese hamster ovary) cells, grown under G418 selection
T2 sequence (O43614 1-444): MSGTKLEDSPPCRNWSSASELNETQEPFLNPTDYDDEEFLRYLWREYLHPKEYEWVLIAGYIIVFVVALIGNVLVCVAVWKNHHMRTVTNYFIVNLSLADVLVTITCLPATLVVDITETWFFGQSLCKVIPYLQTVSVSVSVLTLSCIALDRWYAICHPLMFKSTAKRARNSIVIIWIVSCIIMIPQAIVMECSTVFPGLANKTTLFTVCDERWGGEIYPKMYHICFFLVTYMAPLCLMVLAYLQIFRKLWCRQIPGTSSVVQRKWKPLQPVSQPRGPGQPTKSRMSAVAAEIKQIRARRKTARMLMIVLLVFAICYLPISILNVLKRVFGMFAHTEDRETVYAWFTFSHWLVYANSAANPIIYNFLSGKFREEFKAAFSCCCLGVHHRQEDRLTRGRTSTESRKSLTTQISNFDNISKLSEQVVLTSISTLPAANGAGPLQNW
Method: as §1, §2, §3, §4, §5, §6, §7, §8

IC50 (human orexin-1 receptor)	IC50 (human orexin-2 receptor)	SMILES
111 nM	14 nM	Cc1nc(C(=O)N2C[C@H]3C[C@H]3[C@H]2CNC(=O)c2cccc3c2OCCO3)c(-c2cccc(F)c2)s1 (relative stereo) [Example 256, 2,3-Dihydro-benzo[1,4]dioxine-5-carboxylic acid {(1R*,2S*,5S*)-3-[5-(3-fluoro-phenyl)-2-methyl-thiazole-4-carbonyl]-3-aza-bicyclo[3.1.0]hex-2-ylmethyl}-amide]
31 nM	87 nM	Cc1cccc(-c2sc(N)nc2C(=O)N2C[C@H]3C[C@H]3[C@H]2CNC(=O)c2sc3nccn3c2C)c1 (relative stereo) [Example 274, 3-Methyl-imidazo[2,1-b]thiazole-2-carboxylic acid [(1R*,2S*,5S*)-3-(2-amino-5-m-tolyl-thiazole-4-carbonyl)-3-aza-bicyclo[3.1.0]hex-2-ylmethyl]-amide]
33 nM	15 nM	Cc1cccc(-c2sc(N)nc2C(=O)N2C[C@H]3C[C@H]3[C@H]2CNC(=O)c2scc3c2OCCO3)c1 (relative stereo) [Example 284, 2,3-Dihydro-thieno[3,4-b][1,4]dioxine-5-carboxylic acid [(1R*,2S*,5S*)-3-(2-amino-5-m-tolyl-thiazole-4-carbonyl)-3-aza-bicyclo[3.1.0]hex-2-ylmethyl]-amide]
954 nM	172 nM	COCCOc1cccc(-c2sc(C)nc2C(=O)N2C[C@H]3C[C@H]3[C@H]2CNC(=O)c2cccc3occc23)c1 (relative stereo) [Example 333, Benzofuran-4-carboxylic acid ((1R*,2S*,5S*)-3-{5-[3-(2-methoxy-ethoxy)-phenyl]-2-methyl-thiazole-4-carbonyl}-3-aza-bicyclo[3.1.0]hex-2-ylmethyl)-amide]
141 nM	48 nM	Cc1nc(C(=O)N2C[C@H]3C[C@H]3[C@H]2CNC(=O)c2cccc3c2OCCO3)c(-c2cccc(C#N)c2)s1 (relative stereo) [Example 336, 2,3-Dihydro-benzo[1,4]dioxine-5-carboxylic acid {(1R*,2S*,5S*)-3-[5-(3-cyano-phenyl)-2-methyl-thiazole-4-carbonyl]-3-aza-bicyclo[3.1.0]hex-2-ylmethyl}-amide]
23 nM	85 nM	Cc1cccc(-c2sc(C#CCO)nc2C(=O)N2C[C@H]3C[C@H]3[C@H]2CNC(=O)c2c(C)nc3sccn23)c1 (relative stereo) [Example 387, 6-Methyl-imidazo[2,1-b]thiazole-5-carboxylic acid {(1R*,2S*,5S*)-3-[2-(3-hydroxy-prop-1-ynyl)-5-m-tolyl-thiazole-4-carbonyl]-3-aza-bicyclo[3.1.0]hex-2-ylmethyl}-amide]

Second part, the molecule before the results:

SMILES	IC50 (human orexin-1 receptor)	IC50 (human orexin-2 receptor)
Cc1cccc(-c2sc(C)nc2C(=O)N2C[C@H]3C[C@H]3[C@H]2CNC(=O)c2ccc(F)cc2Cl)c1 (relative stereo) [Example 141, 2-Chloro-4-fluoro-N-[(1R*,2S*,5S*)-3-(2-methyl-5-m-tolyl-thiazole-4-carbonyl)-3-aza-bicyclo[3.1.0]hex-2-ylmethyl]-benzamide]	76 nM	14 nM
Cc1cccc(-c2sc(C)nc2C(=O)N2C[C@H]3C[C@H]3[C@H]2CNC(=O)c2cccc(C)c2Cl)c1 (relative stereo) [Example 143, 2-Chloro-3-methyl-N-[(1R*,2S*,5S*)-3-(2-methyl-5-m-tolyl-thiazole-4-carbonyl)-3-aza-bicyclo[3.1.0]hex-2-ylmethyl]-benzamide]	507 nM	17 nM
Cc1cccc(-c2sc(C)nc2C(=O)N2C[C@H]3C[C@H]3[C@H]2CNC(=O)c2ccc(C)c(C(F)(F)F)c2)c1 (relative stereo) [Example 146, 4-Methyl-N-[(1R*,2S*,5S*)-3-(2-methyl-5-m-tolyl-thiazole-4-carbonyl)-3-aza-bicyclo[3.1.0]hex-2-ylmethyl]-3-trifluoromethyl-benzamide]	54 nM	55 nM
Cc1cccc(-c2sc(C)nc2C(=O)N2C[C@H]3C[C@H]3[C@H]2CNC(=O)c2ccccc2N2CCOCC2)c1 (relative stereo) [Example 154, N-[(1R*,2S*,5S*)-3-(2-Methyl-5-m-tolyl-thiazole-4-carbonyl)-3-aza-bicyclo[3.1.0]hex-2-ylmethyl]-2-morpholin-4-yl-benzamide]	201 nM	237 nM
Cc1cccc(-c2sc(C)nc2C(=O)N2C[C@H]3C[C@H]3[C@H]2CNC(=O)c2cccc3c2C=CCO3)c1 (relative stereo) [Example 178, 2H-Chromene-5-carboxylic acid [(1R*,2S*,5S*)-3-(2-methyl-5-m-tolyl-thiazole-4-carbonyl)-3-aza-bicyclo[3.1.0]hex-2-ylmethyl]-amide]	43 nM	33 nM
Cc1cccc(-c2sc(C)nc2C(=O)N2C[C@H]3C[C@H]3[C@H]2CNC(=O)c2cccc3c2OCCN3C)c1 (relative stereo) [Example 179, 4-Methyl-3,4-dihydro-2H-benzo[1,4]oxazine-8-carboxylic acid [(1R*,2S*,5S*)-3-(2-methyl-5-m-tolyl-thiazole-4-carbonyl)-3-aza-bicyclo[3.1.0]hex-2-ylmethyl]-amide]	237 nM	76 nM
Cc1cccc(-c2sc(C)nc2C(=O)N2C[C@H]3C[C@H]3[C@H]2CNC(=O)c2cccc3c2NC(=O)CO3)c1 (relative stereo) [Example 181, 3-Oxo-3,4-dihydro-2H-benzo[1,4]oxazine-5-carboxylic acid [(1R*,2S*,5S*)-3-(2-methyl-5-m-tolyl-thiazole-4-carbonyl)-3-aza-bicyclo[3.1.0]hex-2-ylmethyl]-amide]	90 nM	154 nM
Cc1cccc(-c2sc(C)nc2C(=O)N2C[C@H]3C[C@H]3[C@H]2CNC(=O)c2cccc3c2CCCO3)c1 (relative stereo) [Example 182, Chroman-5-carboxylic acid [(1R*,2S*,5S*)-3-(2-methyl-5-m-tolyl-thiazole-4-carbonyl)-3-aza-bicyclo[3.1.0]hex-2-ylmethyl]-amide]	241 nM	196 nM
Cc1nc(C(=O)N2C[C@H]3C[C@H]3[C@H]2CNC(=O)c2cnc3ccccn23)c(-c2cccc(Cl)c2)s1 (relative stereo) [Example 203, Imidazo[1,2-a]pyridine-3-carboxylic acid {(1R*,2S*,5S*)-3-[5-(3-chloro-phenyl)-2-methyl-thiazole-4-carbonyl]-3-aza-bicyclo[3.1.0]hex-2-ylmethyl}-amide]	42 nM	92 nM
Cc1nc(C(=O)N2C[C@H]3C[C@H]3[C@H]2CNC(=O)c2cnc3sccn23)c(-c2cccc(F)c2)s1 (relative stereo) [Example 214, Imidazo[2,1-b]thiazole-5-carboxylic acid {(1R*,2S*,5S*)-3-[5-(3-fluoro-phenyl)-2-methyl-thiazole-4-carbonyl]-3-aza-bicyclo[3.1.0]hex-2-ylmethyl}-amide]	37 nM	17 nM
Cc1nc(C(=O)N2C[C@H]3C[C@H]3[C@H]2CNC(=O)c2cccc3c2OCO3)c(-c2cccc(F)c2)s1 (relative stereo) [Example 242, Benzo[1,3]dioxole-4-carboxylic acid {(1R*,2S*,5S*)-3-[5-(3-fluoro-phenyl)-2-methyl-thiazole-4-carbonyl]-3-aza-bicyclo[3.1.0]hex-2-ylmethyl}-amide]	963 nM	59 nM
